Experimental data as given in patent publication US8642623B2, “Vanilloid receptor ligand compounds, pharmaceutical compositions containing them, a method of producing them and the use thereof to treat pain and various other conditions” (Gruenenthal GmbH, priority 2007, dated 2014).

Legend:
Assay type in all cases: cell-based
[1] = biological target: T1, vanilloid receptor 1 (VR1/TRPV1) of the rat species (Rattus norvegicus, UniProt O35433); experiment: FLIPR Ca2+ influx assay on rat dorsal root ganglia cells, capsaicin stimulus (Pharmacological method I); details: capsaicin 100 nM stimulus, Ki from IC50 by Cheng-Prusoff
T1 construct: The spinal column is removed from decapitated rats; from tissue; host or cells: primary cells from rat dorsal root ganglia (DRG)
T1 sequence (O35433 whole entry): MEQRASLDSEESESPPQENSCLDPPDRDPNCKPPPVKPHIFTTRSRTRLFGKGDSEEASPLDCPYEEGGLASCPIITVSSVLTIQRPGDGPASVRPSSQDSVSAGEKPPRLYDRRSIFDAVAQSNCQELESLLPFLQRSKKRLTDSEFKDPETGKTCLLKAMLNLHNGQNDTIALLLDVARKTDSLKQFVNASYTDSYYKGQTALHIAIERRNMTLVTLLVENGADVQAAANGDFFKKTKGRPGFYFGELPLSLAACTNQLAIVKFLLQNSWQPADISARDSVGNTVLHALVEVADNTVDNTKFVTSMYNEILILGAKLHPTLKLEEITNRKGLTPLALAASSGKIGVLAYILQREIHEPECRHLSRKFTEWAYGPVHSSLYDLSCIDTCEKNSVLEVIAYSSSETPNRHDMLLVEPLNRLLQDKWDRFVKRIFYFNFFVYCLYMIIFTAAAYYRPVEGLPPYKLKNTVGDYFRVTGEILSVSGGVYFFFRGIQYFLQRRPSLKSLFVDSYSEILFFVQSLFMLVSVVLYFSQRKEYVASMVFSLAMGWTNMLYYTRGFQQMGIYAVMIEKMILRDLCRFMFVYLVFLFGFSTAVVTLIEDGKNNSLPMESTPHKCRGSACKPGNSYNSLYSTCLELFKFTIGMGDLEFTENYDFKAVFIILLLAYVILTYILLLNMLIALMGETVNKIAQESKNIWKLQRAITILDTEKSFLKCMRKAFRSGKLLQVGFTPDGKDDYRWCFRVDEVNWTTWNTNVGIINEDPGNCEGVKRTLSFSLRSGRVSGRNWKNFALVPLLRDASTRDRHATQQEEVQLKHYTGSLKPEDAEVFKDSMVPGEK
Description: (§1) The agonistic or antagonistic action of the substances to be investigated on the vanilloid receptor 1 (VR1/TRPV1) of the rat species may be determined with the following assay. According to this assay, the influx of Ca^2+ through the receptor channel is quantified with the assistance of a Ca^2+-sensitive dye (type Fluo-4, Molecular Probes Europe BV, Leiden, Netherlands) in a Fluorescent Imaging Plate Reader (FLIPR, Molecular Devices, Sunnyvale, USA).
Complete medium: 50 mL HAMS F12 Nutrient Mixture (Gibco Invitrogen GmbH, Karlsruhe, Germany) with 10 vol. % FCS (foetal calf serum, Gibco Invitrogen GmbH, Karlsruhe, Germany, heat-inactivated);
Cell culture plate: poly-D-lysine-coated, black 96-hole plates with clear base (96 well black/clear plate, BD Biosciences, Heidelberg, Germany) are additionally coated with laminin (Gibco Invitrogen GmbH, Karlsruhe, Germany), by diluting laminin to a concentration of 100 μg/mL with PBS (Ca—Mg-free PBS, Gibco Invitrogen GmbH, Karlsruhe, Germany). Aliquots with a concentration of 100 μg/mL of laminin are taken and stored at −20° C. The aliquots are diluted with PBS in the ratio of 1:10 to 10 μg/mL of laminin and 50 μL of the solution is pipetted into each well of the cell culture plate. The cell culture plates are incubated for at least two hours at 37° C., the supernatant solution is aspirated and the wells are each washed twice with PBS. The coated cell culture plates are stored with supernatant PBS and this is only removed directly prior to introduction of the cells.
The spinal column is removed from decapitated rats and this is placed directly in cold HBSS buffer (Hank's buffered saline solution, Gibco Invitrogen GmbH, Karlsruhe, Germany), i.e. located in an ice bath, combined with 1 vol. % (percent by volume) of an AA solution (antibiotic/antimycotic solution, PAA, Pasching, Austria). The spinal column is severed lengthwise and removed from the spinal canal together with fasciae. The dorsal root ganglia (DRGs) are then removed and in turn stored in cold HBSS buffer combined with 1 vol. % of an AA solution. The DRGs, from which blood residues and spinal nerves have been completely removed, are in each case transferred into 500 μL cold collagenase type 2 (PAA, Pasching, Austria) and incubated for 35 minutes at 37° C. After the addition of 2.5 vol. % trypsin (PAA, Pasching, Austria) incubation at 37° C. is continued for a further 10 minutes. After complete incubation, the enzyme solution is carefully pipetted off and the remaining DRGs are combined in each case with 500 μL of complete medium.
The DRGs are in each case repeatedly suspended, drawn through cannulas no. 1, no. 12 and no. 16 by means of a syringe and transferred into 50 mL Falcon microtubes, these being filled to 15 mL with complete medium. The content of each Falcon microtube is in each case filtered through a 70 μm Falcon filter insert and centrifuged for 10 minutes at 1200 revolutions and room temperature. The resultant pellet is in each case redissolved in 250 μL of complete medium and the cell count is determined.
The number of cells in the suspension is adjusted to 3×10^5 per mL and a 150 μL portion of this suspension is in each case placed in a well of the cell culture plates which have been coated as described above. The plates are left to stand in the incubator for two to three days at 37° C., 5 vol. % CO2 and 95% relative atmospheric humidity.
The cells are then loaded with 2 μM Fluo-4 and 0.01 vol. % Pluronic F127 (Molecular Probes Europe BV, Leiden, Netherlands) in HBSS buffer (Hank's buffered saline solution, Gibco Invitrogen GmbH, Karlsruhe, Germany) for 30 min at 37° C., washed 3×with HBSS buffer and, after a further 15 minutes' incubation at room temperature, used for Ca^2+ measurement in the FLIPR assay. Ca^2+-dependent fluorescence is here measured before and after the addition of substances (λex=488 nm, λem=540 nm). […]

vanilloid receptor (VR1) = biological target: T2, vanilloid receptor (VR1) (Homo sapiens, UniProt Q8NER1); experiment: FLIPR Ca2+ influx assay with CHO K1 cells transfected with the human VR1 gene, capsaicin stimulus (Pharmacological method II); details: capsaicin 100 nM stimulus, Ki from IC50 by Cheng-Prusoff
T2 construct: expressed in transfected cells; host or cells: CHO K1 cells (ECACC), stably transfected
T2 sequence (Q8NER1 whole entry): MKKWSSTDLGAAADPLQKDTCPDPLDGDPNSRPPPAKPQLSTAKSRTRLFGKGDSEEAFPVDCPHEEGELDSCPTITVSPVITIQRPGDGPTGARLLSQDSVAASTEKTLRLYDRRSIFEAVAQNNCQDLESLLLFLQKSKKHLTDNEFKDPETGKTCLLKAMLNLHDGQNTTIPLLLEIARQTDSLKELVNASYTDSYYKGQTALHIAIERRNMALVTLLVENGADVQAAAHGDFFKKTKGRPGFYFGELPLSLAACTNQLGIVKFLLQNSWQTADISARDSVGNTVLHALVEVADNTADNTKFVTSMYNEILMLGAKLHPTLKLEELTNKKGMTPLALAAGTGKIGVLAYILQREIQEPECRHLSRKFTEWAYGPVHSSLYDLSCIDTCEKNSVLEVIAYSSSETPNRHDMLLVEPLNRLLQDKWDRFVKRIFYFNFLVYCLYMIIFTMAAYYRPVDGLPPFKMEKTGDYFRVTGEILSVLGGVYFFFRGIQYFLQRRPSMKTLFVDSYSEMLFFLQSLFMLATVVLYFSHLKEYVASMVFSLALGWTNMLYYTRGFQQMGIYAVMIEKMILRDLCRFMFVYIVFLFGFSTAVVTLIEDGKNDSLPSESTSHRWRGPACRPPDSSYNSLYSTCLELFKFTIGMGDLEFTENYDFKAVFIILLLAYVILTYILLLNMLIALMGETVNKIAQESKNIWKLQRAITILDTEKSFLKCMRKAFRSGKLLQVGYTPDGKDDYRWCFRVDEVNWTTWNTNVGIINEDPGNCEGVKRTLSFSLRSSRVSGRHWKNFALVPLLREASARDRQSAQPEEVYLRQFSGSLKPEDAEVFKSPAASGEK
Description: In addition, compounds according to the invention of the general formulae I, Ia, Ib, I′, I″, I′″ may be preferred which, in a FLIPR assay with CHO K1 cells which have been transfected with the human gene VR1, in a concentration of less than 2000 nM, preferably of less than 1000 nM, particularly preferably of less then 300 nM, very particularly preferably of less than 100 nM, still more preferably of less than 75 nM, further preferably of less than 50 nM, most preferably of less than 10 nM, bring about 50% displacement of capsaicin which is present in a concentration of 100 nM.
In this FLIPR assay, the influx of Ca^2+ is quantified with the assistance of a Ca^2+-sensitive dye (type Fluo-4, Molecular Probes Europe BV, Leiden, Netherlands) in a Fluorescent Imaging Plate Reader (FLIPR, Molecular Devices, Sunnyvale, USA) as described below.
as §1, with “(VR1)” for “1 (VR1/TRPV1) of the rat species”, “may also” for “may”, “the” for “the receptor”
Chinese hamster ovary cells (CHO K1 cells, European Collection of Cell Cultures (ECACC), Great Britain) are stably transfected with the VR1 gene. For functional investigations, these cells are plated out onto poly-D-lysine-coated, black 96-hole plates with a clear base (BD Biosciences, Heidelberg, Germany) at a density of 25,000 cells/hole. The cells are incubated overnight at 37° C. and 5% CO2 in a culture medium (Ham's Nutrient Mixture F12, 10 vol. % FCS (foetal calf serum), 18 μg/mL L-proline). On the following day, the cells are incubated with Fluo-4 (Fluo-4 2 μM, Pluronic F127 0.01 vol. %, Molecular Probes in HBSS (Hank's buffered saline solution), Gibco Invitrogen GmbH, Karlsruhe, Germany) for 30 minutes at 37° C. The plates are then washed 3 times with HBSS buffer and, after a further 15 minutes' incubation at room temperature, used for Ca^2+ measurement in the FLIPR. Ca^2+-dependent fluorescence is here measured before and after the addition of the substances to be investigated (wavelength λex=488 nm, λem=540 nm). Quantification proceeds by measuring the highest fluorescence intensity (FC, fluorescence counts) over time.
The FLIPR protocol consists of 2 additions of substance. The substances to be tested (10 μM) are firstly pipetted onto the cells and Ca^2+ influx is compared with the control (capsaicin 10 μM) (% activation relative to the Ca^2+ signal after addition of 10 μM of capsaicin). After 5 minutes' incubation, 100 nM of capsaicin are added and the influx of Ca^2+ is likewise determined.
The percentage inhibition in comparison with the maximum achievable inhibition with 10 μM capsaicin is calculated.
On the basis of the percentage displacement by different concentrations of the compounds to be tested of the general formula I, IC50 inhibition concentrations which bring about 50% displacement of capsaicin were calculated. Ki values for the test substances were obtained by conversion using the Cheng-Prusoff equation (Cheng, Prusoff; Biochem. Pharmacol. 22, 3099-3108, 1973).

[2] = biological target: vanilloid receptor 1 (VR1/TRPV1 receptor) (Homo sapiens, UniProt Q8NER1); experiment: Human VR1/TRPV1 receptor inhibition after pH stimulus
vanilloid receptor 1 (VR1/TRPV1 receptor), sequence (Q8NER1 whole entry): as above

- Ki [1]: 63.8 nM
- Ki (vanilloid receptor (VR1)): 22.7 nM
- inhibition at 5 µM ([2]; compound 5 μM): 11%
- inhibition at 10 µM ([2]; compound 10 μM): 46%
Structure (SMILES): CCN(c1ccc(C(C)C(=O)NCc2ccc(C(F)(F)F)nc2N2CCC(C)CC2)cc1F)S(C)(=O)=O (stereo not shown) [Example 9, 2-(4-(N-ethylmethylsulfonamido)-3-fluorophenyl)-N-((2-(4-methylpiperidin-1-yl)-6-(trifluoromethyl)pyridin-3-yl)methyl)propanamide]
